{"source": "patent US9029502B2", "about": "“Inhibitors of the epidermal growth factor receptor-heat shock protein 90 binding interaction” (priority 2010, dated 2015)", "key": {"C57BL/6 mice": {"system": "C57BL/6 mice", "experiment": "Safety in immune-competent C57BL/6 mice", "type": "in vivo", "conditions": "intraperitoneal, 10 and 30 mg/kg; for histological alterations in evaluated organs: 3 days post-injection", "description": "Mice were dosed by intraperitoneal injection with 10 and 30 mg/kg of Disruptin, and brain, lung, liver, heart, kidneys, spleen, stomach, small intestine, mesenteric lymph nodes, cecum, colon, pancreas, ovaries, bone marrow, and eyes were evaluated 3 days post-injection."}, "UMSCC1 xenografts [1]": {"system": "UMSCC1 xenografts", "experiment": "In vivo tumor growth study, UMSCC1 xenografts", "set-up": "species or system mice", "description": "(a) To determine if EGFR level was affected in the UMSCC1 xenograft tumor, mice were injected with either DMSO, specific, or non-specific biotinylated peptide (8 mg/kg) intraperitoneally. Three weeks after the injection, tumors (white arrow) along with some adjacent normal tissue (yellow arrow) were harvested. Immunostaining was performed for EGFR and HSP90. HSP90 levels were not affected by either treatment either in tumor or in the adjacent skin tissue. EGFR expression was reduced in the tumor treated with specific peptide relative to normal adjacent skin cells. (b) The effect on tumor growth was also assessed after treatment with two injections separated by 3 days. Tumor volume was recorded every other day during this period, (c) Time to tumor volume doubling was plotted for each treatment condition using Kaplan-Meier method and (d) Comparisons between any two treatment groups was analyzed by log rank tests.\nMice were handled according to the established procedures of the University of Michigan Laboratory Animals Maintenance Manual. To generate tumor xenografts, 2×10^6 UMSCC1 cells were transplanted into the flanks of athymic nude Foxn1^nu mice (Harlan Laboratories). […]\nTumor volume doubling was determined for each xenograft by identifying the earliest day on which it was at least twice as large as on the first day of treatment. […]"}, "UMSCC1 xenografts [2]": {"system": "UMSCC1 xenografts", "experiment": "Peptide internalization assay in UMSCC1 xenografts", "type": "in vivo", "conditions": "8 mg/kg, i.p., nude mice with UMSCC1 xenografts", "description": "Delivery of the peptide to the UMSCC1 xenografts was assessed after injection of peptides (8 mg/kg, i.p.), 3 days later the tumors were removed, cryosections were immunostained for EGFR, and the internalized biotinylated peptide was visualized by Streptavidin Alexa Fluor […] reagent.\nThe UMSCC1 xenografts were cryopreserved in OCT (Electron Microscopy Sciences). Five μm sections were cut from tissues prepared on days 1 and 3 after peptide treatment. Sections were fixed in cold methanol for 20 min and then were blocked with 1% Bovine Serum Albumin (BSA). The sections were incubated overnight with anti-EGFR antibody (Santa Cruz). After washing, the sections were incubated with anti-rabbit Alexa Fluor 488 (Molecular Probes) and Streptavidin conjugated Alexa Fluor 594 (Molecular Probes). Coverslips were mounted with one drop of Prolong Gold anti-fade reagent with DAPI (4,6-diamidino-2-phenylindole; Molecular Probes) to visualize the nuclei. Fluorescence images were acquired using a DP70 camera fitted on an Olympus 1X-71 microscope."}, "UMSCC10B": {"system": "UMSCC10B", "experiment": "Clonogenic cell survival assay, UMSCC10B", "type": "cell-based, human", "conditions": "cell permeable peptides, H&N cancer, WT-EGFR", "description": "(§1) Clonogenic assays were performed using standard techniques.^34 The fraction surviving each treatment was normalized to the survival of the control cells. Peptide cell survival curves were fitted using the equation SF=(C50)^m/[(C50)^m+C^m], where SF is the surviving fraction, C is the peptide concentration, C50 is the concentration of peptide that produces a 50% cell survival and m is the slope of the sigmoid curve.\n(§2) We then assessed colonogenic survival in head and neck (UMSCC1, UMSCC10B, UMSCC74B), lung (A549, H1975, H3255), and HeLa cancer cells. Normal human esophageal squamous epithelial (Het1A) and lung fibroblast (MRC5) cell lines along with EGFR negative CHO cells were selected to study selectivity."}, "HeLa": {"system": "HeLa", "experiment": "Clonogenic cell survival assay, HeLa", "type": "cell-based, human", "conditions": "cell permeable peptides, cervical cancer, WT-EGFR", "description": "as §1, §2"}, "CHO": {"system": "CHO", "experiment": "Clonogenic cell survival assay, CHO", "type": "cell-based", "conditions": "cell permeable peptides, hamster ovarian", "description": "as §1, §2"}, "UMSCC74B": {"system": "UMSCC74B", "experiment": "Clonogenic cell survival assay, UMSCC74B", "type": "cell-based, human", "conditions": "cell permeable peptides, H&N cancer, WT-EGFR", "description": "as §1, §2"}, "H1975": {"system": "H1975", "experiment": "Clonogenic cell survival assay, H1975", "type": "cell-based, human", "conditions": "cell permeable peptides; H1975, lung cancer, T790M-EGFR", "description": "as §1, §2"}, "HSP90": {"target": "T1, HSP90 (Homo sapiens, UniProt P07900)", "T1 construct": "cell lysates from cancer or normal cells were prepared by 3 freeze-thaw cycles; endogenous in cells; host or cells: UMSCC1, H1975, Het1A, MRC5 (A11); UMSCC1 (A13)", "experiment": "Peptide binding assay (streptavidin pull-down of biotinylated peptide, HSP90 immunoblot)", "conditions": "UMSCC1 cell lysate; 10, 30 and 100 μg/ml", "description": "(a) To determine if the lead peptide interacts directly with tumor HSP90, cell lysates from cancer or normal cells were prepared by 3 freeze-thaw cycles and then incubated with 3 μg/ml of specific or non-specific biotin coupled peptides for 2 hours. The peptide was affinity purified using Streptavidin-agarose beads, and bound HSP90 was detected by immunoblotting for HSP90. […] (b) The effect of the treatment with specific and non-specific peptide on HSP90-EGFR interaction was determined by IP of HSP90 followed by IB with EGFR at 24 hours post treatment. […] The increased levels of HSP70 upon GA treatment indicate inhibition of HSP90 activity. (c) Specificity of the peptide treatment compared to GA was evaluated in tumor and normal cells as described in FIG. 3b, by assessing the levels of EGFR and PARP cleavage (marker of apoptotic cell death) at 72 hours post treatment, (d) cell survival was assessed using colony formation assay.\n(a) UMSCC1 cell lysate was incubated with three concentrations of specific or non-specific peptide (10, 30 and 100 μg/ml) followed by immunoblotting with anti-HSP90 antibody. […] (b) The effect of EGFR specific peptide on HSP90's ability to bind with ATP was assessed. […] Bound protein was eluted in SDS-PAGE buffer, and the levels were determined by immunoblot analysis. […]"}, "EGFR-HSP90 interaction": {"target": "T2, EGFR-HSP90 interaction (Homo sapiens, UniProt P07900)", "T2 construct": "endogenous in cells; host or cells: UMSCC1, H1975, Het1A, MRC5", "experiment": "EGFR-HSP90 interaction by immunoprecipitation and immunoblotting", "type": "cell-based", "conditions": "24-hour exposure; cancer cell lines (UMSCC1, H1975); GA 50 nM as positive control"}, "A549": {"system": "A549", "experiment": "Clonogenic cell survival assay, A549", "type": "cell-based, human", "conditions": "cell permeable peptides; A549, lung cancer, WT-EGFR", "description": "as §1, §2"}, "EGFR": {"system": "EGFR", "type": "in vivo, mice", "conditions": "UMSCC1 xenograft, 8 mg/kg intraperitoneally", "experimental": "Delivery of the peptide to the UMSCC1 xenografts was assessed after injection of peptides (8 mg/kg, i.p.), 3 days later the tumors were removed, cryosections were immunostained for EGFR, and the internalized biotinylated peptide was visualized by Streptavidin Alexa Fluor 562 reagent."}, "MRC5": {"system": "MRC5", "experiment": "Clonogenic cell survival assay, MRC5", "type": "cell-based", "conditions": "cell permeable peptides; MRC5, normal human fibroblasts, WT-EGFR", "description": "as §1, §2"}, "UMSCC1 cells": {"system": "UMSCC1 cells", "experiment": "Clonogenic cell survival assay, UMSCC1", "type": "cell-based, human", "description": "as §1, §2"}, "Het1A": {"system": "Het1A", "experiment": "Clonogenic cell survival assay, Het1A", "type": "cell-based", "conditions": "cell permeable peptides, normal human epithelial, WT-EGFR", "description": "as §1, §2"}, "H3255": {"system": "H3255", "experiment": "Clonogenic cell survival assay, H3255", "type": "cell-based, human", "conditions": "cell permeable peptides; H3255, lung cancer, L858R-EGFR", "description": "as §1, §2"}}, "note": "Ends that are not written are not given here. Peptide text beside a SMILES is read from it. * marks the point of attachment. Biotin = O=C1N[C@H]2[C@H](CS[C@H]2CCCCC(=O)*)N1", "data": [{"compound": "COC1=C2C[C@@H](C)C[C@H](OC)[C@H](O)[C@@H](C)/C=C(\\C)[C@H](OC(N)=O)[C@@H](OC)/C=C\\C=C(/C)C(=O)NC(=CC1=O)C2=O", "note": "[Geldanamycin, reference compound]", "values": [{"measurement": "histological alterations in evaluated organs", "setting": "C57BL/6 mice", "result": "histological evidence of toxicity in eye and liver"}]}, {"compound": "CC(C)[C@H](NC(=O)[C@H](Cc1c[nH]cn1)NC(=O)[C@@H]1CCCN1C(=O)[C@H](CC(N)=O)NC(=O)[C@H](CC(=O)O)NC(=O)[C@@H](NC(=O)[C@H](CO)NC(=O)[C@H](CCCNC(=N)N)NC(=O)[C@H](CCCNC(=N)N)NC(=O)[C@H](CCCNC(=N)N)NC(=O)[C@H](CCC(N)=O)NC(=O)[C@H](CCCNC(=N)N)NC(=O)[C@H](CCCNC(=N)N)NC(=O)[C@H](CCCCN)NC(=O)[C@H](CCCCN)NC(=O)[C@H](CCCNC(=N)N)NC(=O)CNC(=O)[C@H](Cc1ccc(O)cc1)NC(=O)CCCC[C@@H]1SC[C@@H]2NC(=O)N[C@@H]21)C(C)C)C(=O)N[C@@H](CS)C(=O)O", "note": "[Specific Peptide] (Biotin-YGRKKRRQRRRSVDNPHVC-OH; N-terminus and C-terminus assumed)", "values": [{"measurement": "systemic toxicity", "setting": "UMSCC1 xenografts [1]; UMSCC1 xenograft mice", "result": "No systemic toxicity"}, {"measurement": "time post injection peptide remained detectable in xenografts", "setting": "UMSCC1 xenografts [2]", "result": 72, "unit": "h"}]}, {"compound": "Biotin-YGRKKRRORRR-NHVPSDVC [Non Specific Peptide]", "values": [{"measurement": "clonogenic survival (surviving fraction)", "setting": "UMSCC10B", "result": "0.98 ± 0.04"}, {"measurement": "clonogenic survival (surviving fraction)", "setting": "HeLa", "result": "0.92 ± 0.08"}, {"measurement": "clonogenic survival (surviving fraction)", "setting": "CHO", "result": "1.12 ± 0.14"}, {"measurement": "median tumor doubling time", "setting": "UMSCC1 xenografts [1]; UMSCC1 xenografts, single dose", "result": 5.5, "unit": "days"}, {"measurement": "clonogenic survival (surviving fraction)", "setting": "UMSCC74B", "result": "0.88 ± 0.10"}, {"measurement": "clonogenic survival (surviving fraction)", "setting": "H1975", "result": "0.77 ± 0.17"}, {"measurement": "binding of peptide with HSP90 versus peptide concentration", "setting": "HSP90", "result": "minimal interaction"}, {"measurement": "EGFR-HSP90 interaction", "setting": "EGFR-HSP90 interaction", "result": "no effect"}, {"measurement": "clonogenic survival (surviving fraction)", "setting": "A549", "result": "0.81 ± 0.09"}, {"measurement": "HSP90 levels in tumor or adjacent skin tissue (immunostaining)", "setting": "EGFR", "result": "not affected"}, {"measurement": "clonogenic survival (surviving fraction)", "setting": "MRC5", "result": "1.04 ± 0.05"}, {"measurement": "clonogenic survival (surviving fraction)", "setting": "UMSCC1 cells", "result": "1.62 ± 0.04"}, {"measurement": "clonogenic survival (surviving fraction)", "setting": "Het1A", "result": "0.91 ± 0.11"}, {"measurement": "clonogenic survival (surviving fraction)", "setting": "H3255", "result": "1.0 ± 0.07"}]}, {"compound": "DEAYVMASVDNPHVCRLLGIC [Peptide 5]", "values": [{"measurement": "Survival Fraction", "setting": "UMSCC1 cells; clonogenic survival of UMSCC1 cells, synthetic peptides delivered using Chariot", "result": "1 ± 0.14"}]}, {"compound": "NHVPSDVC [Peptide 8]", "values": [{"measurement": "complete blood counts and liver cytosolic enzymes (AST, ALT)", "setting": "C57BL/6 mice", "result": "not significantly different from controls"}, {"measurement": "histological alterations in evaluated organs", "setting": "C57BL/6 mice", "result": "no histological alterations"}]}, {"compound": "SVDNPHVC [Peptide 2]", "values": [{"measurement": "complete blood counts and liver cytosolic enzymes (AST, ALT)", "setting": "C57BL/6 mice", "result": "not significantly different from controls"}, {"measurement": "histological alterations in evaluated organs", "setting": "C57BL/6 mice", "result": "no histological alterations"}]}]}
